{
  "source": "patent US20100305098A1",
  "about": "“METHODS OF USE” (priority 2007, published 2010)",
  "key": {"H2": {"target": "T1, H2 (Homo sapiens, UniProt P25021)", "T1 construct": "Millipore", "assay": "FLIPR functional screen", "format": "cell-based", "conditions": "antagonist mode"}, "GAL2": {"target": "T2, GAL2 (Homo sapiens, UniProt O43603)", "T2 construct": "Millipore", "T2 sequence (O43603 whole entry)": "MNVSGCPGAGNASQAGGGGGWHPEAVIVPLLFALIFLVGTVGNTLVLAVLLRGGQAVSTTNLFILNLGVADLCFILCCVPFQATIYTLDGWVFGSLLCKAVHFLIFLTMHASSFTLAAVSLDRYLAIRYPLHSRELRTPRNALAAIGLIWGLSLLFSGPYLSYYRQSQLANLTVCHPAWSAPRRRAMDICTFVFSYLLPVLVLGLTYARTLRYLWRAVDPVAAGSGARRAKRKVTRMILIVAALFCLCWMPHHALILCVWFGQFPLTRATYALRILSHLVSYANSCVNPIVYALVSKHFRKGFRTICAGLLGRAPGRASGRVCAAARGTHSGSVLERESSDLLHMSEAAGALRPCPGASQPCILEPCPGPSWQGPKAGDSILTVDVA", "assay": "FLIPR functional screen", "format": "cell-based", "conditions": "antagonist mode"}, "OPRK1": {"target": "T3, OPRK1 (Homo sapiens, UniProt P41145)", "T3 construct": "Millipore", "assay": "FLIPR functional screen", "format": "cell-based", "conditions": "antagonist mode"}, "D5": {"target": "T4, D5 (Homo sapiens, UniProt P21918)", "T4 construct": "Millipore", "assay": "FLIPR functional screen", "format": "cell-based", "conditions": "antagonist mode"}, "CYSLT1": {"target": "T5, CYSLT1 (Homo sapiens, UniProt Q9Y271)", "T5 construct": "Millipore", "assay": "FLIPR functional screen", "format": "cell-based", "conditions": "antagonist mode"}, "5-HT2C": {"target": "T6, 5-HT2C (Homo sapiens, UniProt P28335)", "T6 construct": "purchased Millipore (outsourced screen)", "assay": "FLIPR functional screen", "format": "cell-based", "conditions": "antagonist mode"}, "FP": {"target": "T7, FP (Homo sapiens, UniProt P43088)", "T7 construct": "Millipore", "assay": "FLIPR functional screen", "format": "cell-based", "conditions": "antagonist mode"}, "PAC1": {"target": "T8, PAC1 (Homo sapiens, UniProt P41586)", "T8 construct": "Millipore", "assay": "FLIPR functional screen", "format": "cell-based", "conditions": "antagonist mode"}, "H1": {"target": "T9, H1 (Homo sapiens, UniProt P35367)", "T9 construct": "Millipore", "assay": "FLIPR functional screen", "format": "cell-based", "conditions": "antagonist mode"}, "Prostanoid EP4": {"target": "T10, Prostanoid EP4 (Homo sapiens, UniProt P35408)", "T10 construct": "host or cells: EP4-expressing membrane preparations", "T10 sequence (P35408 whole entry)": "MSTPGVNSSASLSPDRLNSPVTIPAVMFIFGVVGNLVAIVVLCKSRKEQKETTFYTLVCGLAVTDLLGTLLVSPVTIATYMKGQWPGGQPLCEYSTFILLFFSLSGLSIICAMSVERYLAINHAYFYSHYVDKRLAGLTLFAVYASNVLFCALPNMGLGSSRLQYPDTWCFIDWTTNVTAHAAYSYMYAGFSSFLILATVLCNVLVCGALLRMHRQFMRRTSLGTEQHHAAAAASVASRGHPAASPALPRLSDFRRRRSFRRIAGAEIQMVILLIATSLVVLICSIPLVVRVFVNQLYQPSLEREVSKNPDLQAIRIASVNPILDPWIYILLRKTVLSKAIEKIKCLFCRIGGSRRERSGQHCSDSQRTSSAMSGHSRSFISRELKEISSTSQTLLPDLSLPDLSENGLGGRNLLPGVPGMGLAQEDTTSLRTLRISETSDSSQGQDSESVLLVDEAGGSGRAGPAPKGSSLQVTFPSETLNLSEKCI", "assay": "Competitive radioligand binding (MDS Pharma)", "method": "Radioligand EP4 binding. The radioligand EP4 binding assay measures displacement of radiolabelled PGE2 from EP4-expressing membrane preparations. Radioligand EP4 binding assay kit was purchased from Millipore, and the assay was performed according to instructions of the manufacture."}, "BB3": {"target": "T11, BB3 (Homo sapiens, UniProt P32247)", "T11 construct": "Millipore", "T11 sequence (P32247 whole entry)": "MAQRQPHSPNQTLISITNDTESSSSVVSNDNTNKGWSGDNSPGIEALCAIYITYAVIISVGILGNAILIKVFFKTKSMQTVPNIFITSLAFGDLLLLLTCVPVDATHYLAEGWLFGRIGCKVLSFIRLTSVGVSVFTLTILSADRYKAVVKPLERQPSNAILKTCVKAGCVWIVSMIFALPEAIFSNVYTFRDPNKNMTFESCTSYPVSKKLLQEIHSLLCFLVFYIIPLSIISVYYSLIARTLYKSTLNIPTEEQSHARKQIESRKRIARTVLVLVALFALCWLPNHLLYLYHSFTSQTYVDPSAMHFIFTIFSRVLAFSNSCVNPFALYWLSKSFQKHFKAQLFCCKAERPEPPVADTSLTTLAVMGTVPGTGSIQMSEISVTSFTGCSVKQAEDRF", "assay": "FLIPR functional screen", "format": "cell-based", "conditions": "antagonist mode"}, "M2": {"target": "T12, M2 (Homo sapiens, UniProt P08172)", "T12 construct": "Millipore", "T12 sequence (P08172 whole entry)": "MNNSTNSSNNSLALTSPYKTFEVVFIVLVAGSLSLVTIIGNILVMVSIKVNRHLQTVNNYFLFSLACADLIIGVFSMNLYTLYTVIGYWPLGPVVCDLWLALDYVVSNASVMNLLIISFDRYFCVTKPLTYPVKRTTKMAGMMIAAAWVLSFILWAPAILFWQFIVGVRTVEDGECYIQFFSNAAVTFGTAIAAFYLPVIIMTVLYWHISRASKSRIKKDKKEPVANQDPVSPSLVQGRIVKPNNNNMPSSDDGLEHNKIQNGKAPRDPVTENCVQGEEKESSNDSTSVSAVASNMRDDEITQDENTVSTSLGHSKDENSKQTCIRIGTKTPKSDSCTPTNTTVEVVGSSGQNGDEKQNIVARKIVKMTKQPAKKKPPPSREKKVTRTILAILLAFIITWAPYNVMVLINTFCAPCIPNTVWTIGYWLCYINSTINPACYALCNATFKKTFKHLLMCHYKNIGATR", "assay": "FLIPR functional screen", "format": "cell-based", "conditions": "antagonist mode"}, "PTH2": {"target": "T13, PTH2 (Homo sapiens, UniProt P49190)", "T13 construct": "Millipore", "assay": "FLIPR functional screen", "format": "cell-based", "conditions": "antagonist mode"}, "M3": {"target": "T14, M3 (Homo sapiens, UniProt P20309)", "T14 construct": "Millipore", "T14 sequence (P20309 whole entry)": "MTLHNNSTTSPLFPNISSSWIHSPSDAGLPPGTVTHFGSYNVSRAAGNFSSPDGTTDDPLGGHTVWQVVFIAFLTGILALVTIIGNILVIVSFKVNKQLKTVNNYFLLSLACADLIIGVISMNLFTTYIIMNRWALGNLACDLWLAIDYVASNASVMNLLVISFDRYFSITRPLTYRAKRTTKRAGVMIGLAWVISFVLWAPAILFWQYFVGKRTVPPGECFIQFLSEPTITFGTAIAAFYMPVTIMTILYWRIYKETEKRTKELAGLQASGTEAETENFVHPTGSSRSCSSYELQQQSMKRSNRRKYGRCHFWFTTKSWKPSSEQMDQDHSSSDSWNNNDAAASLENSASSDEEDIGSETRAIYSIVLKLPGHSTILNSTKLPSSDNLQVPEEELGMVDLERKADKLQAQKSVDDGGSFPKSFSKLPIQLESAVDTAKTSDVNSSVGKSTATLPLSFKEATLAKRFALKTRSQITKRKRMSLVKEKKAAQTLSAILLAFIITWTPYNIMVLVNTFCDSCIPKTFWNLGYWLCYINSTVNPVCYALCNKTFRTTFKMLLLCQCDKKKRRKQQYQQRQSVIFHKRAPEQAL", "assay": "FLIPR functional screen", "format": "cell-based", "conditions": "antagonist mode"}, "NK3": {"target": "T15, NK3 (Homo sapiens, UniProt P29371)", "T15 construct": "Millipore", "assay": "FLIPR functional screen", "format": "cell-based", "conditions": "antagonist mode"}, "CCK2": {"target": "T16, CCK2 (Homo sapiens, UniProt P32239)", "T16 construct": "Millipore", "assay": "FLIPR functional screen", "format": "cell-based", "conditions": "antagonist mode"}, "D1": {"target": "T17, D1 (Homo sapiens, UniProt P21728)", "T17 construct": "Millipore", "T17 sequence (P21728 whole entry)": "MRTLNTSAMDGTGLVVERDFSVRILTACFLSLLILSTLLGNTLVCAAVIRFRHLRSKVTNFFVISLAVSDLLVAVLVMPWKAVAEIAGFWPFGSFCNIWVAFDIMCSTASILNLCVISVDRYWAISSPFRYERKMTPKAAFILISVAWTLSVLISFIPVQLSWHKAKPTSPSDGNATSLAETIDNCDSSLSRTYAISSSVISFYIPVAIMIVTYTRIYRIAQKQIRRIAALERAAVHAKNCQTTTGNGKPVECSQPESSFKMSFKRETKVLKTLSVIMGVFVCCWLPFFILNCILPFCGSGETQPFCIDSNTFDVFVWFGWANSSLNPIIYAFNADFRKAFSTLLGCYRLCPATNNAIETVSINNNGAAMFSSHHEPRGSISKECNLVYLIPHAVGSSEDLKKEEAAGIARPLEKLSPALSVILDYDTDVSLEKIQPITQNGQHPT", "assay": "FLIPR functional screen", "format": "cell-based", "conditions": "antagonist mode"}, "SST5": {"target": "T18, SST5 (Homo sapiens, UniProt P35346)", "T18 construct": "Millipore", "T18 sequence (P35346 whole entry, species assumed)": "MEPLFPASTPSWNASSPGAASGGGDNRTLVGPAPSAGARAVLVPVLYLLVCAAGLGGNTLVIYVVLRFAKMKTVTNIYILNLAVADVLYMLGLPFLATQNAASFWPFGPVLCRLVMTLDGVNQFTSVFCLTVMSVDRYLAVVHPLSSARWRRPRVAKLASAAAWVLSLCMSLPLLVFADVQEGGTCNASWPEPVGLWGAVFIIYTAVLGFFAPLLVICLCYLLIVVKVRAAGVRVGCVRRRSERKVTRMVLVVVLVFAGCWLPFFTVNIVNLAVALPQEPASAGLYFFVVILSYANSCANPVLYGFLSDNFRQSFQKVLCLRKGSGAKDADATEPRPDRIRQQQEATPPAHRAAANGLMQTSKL", "assay": "FLIPR functional screen", "format": "cell-based", "conditions": "antagonist mode"}, "NMU1": {"target": "T19, NMU1 (Homo sapiens, UniProt Q9HB89)", "T19 construct": "Millipore", "assay": "FLIPR functional screen", "format": "cell-based", "conditions": "antagonist mode"}, "Y2": {"target": "T20, Y2 (Homo sapiens, UniProt P49146)", "T20 construct": "Millipore", "assay": "FLIPR functional screen", "format": "cell-based", "conditions": "antagonist mode"}, "CCR10": {"target": "T21, CCR10 (Homo sapiens, UniProt P46092)", "T21 construct": "Millipore", "T21 sequence (P46092 whole entry)": "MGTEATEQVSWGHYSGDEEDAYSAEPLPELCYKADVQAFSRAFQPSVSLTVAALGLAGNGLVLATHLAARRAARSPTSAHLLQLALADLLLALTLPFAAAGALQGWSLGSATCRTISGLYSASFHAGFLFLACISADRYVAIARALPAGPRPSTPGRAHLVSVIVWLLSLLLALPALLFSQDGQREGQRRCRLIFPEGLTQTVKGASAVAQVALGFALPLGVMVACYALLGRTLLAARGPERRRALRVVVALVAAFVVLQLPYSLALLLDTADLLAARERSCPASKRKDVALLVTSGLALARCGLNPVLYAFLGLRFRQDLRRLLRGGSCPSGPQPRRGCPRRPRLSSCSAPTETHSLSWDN", "assay": "FLIPR functional screen", "format": "cell-based", "conditions": "antagonist mode"}, "GPR41": {"target": "T22, GPR41 (Homo sapiens, UniProt O14843)", "T22 construct": "Millipore", "assay": "FLIPR functional screen", "format": "cell-based", "conditions": "antagonist mode"}, "CXCR3": {"target": "T23, CXCR3 (Homo sapiens, UniProt P49682)", "T23 construct": "Millipore", "assay": "FLIPR functional screen", "format": "cell-based", "conditions": "antagonist mode"}, "5-HT1B": {"target": "T24, 5-HT1B (Homo sapiens, UniProt P28222)", "T24 construct": "purchased Millipore (outsourced screen)", "assay": "FLIPR functional screen", "format": "cell-based", "conditions": "antagonist mode"}, "M1": {"target": "T25, M1 (Homo sapiens, UniProt P11229)", "T25 construct": "Millipore", "T25 sequence (P11229 whole entry)": "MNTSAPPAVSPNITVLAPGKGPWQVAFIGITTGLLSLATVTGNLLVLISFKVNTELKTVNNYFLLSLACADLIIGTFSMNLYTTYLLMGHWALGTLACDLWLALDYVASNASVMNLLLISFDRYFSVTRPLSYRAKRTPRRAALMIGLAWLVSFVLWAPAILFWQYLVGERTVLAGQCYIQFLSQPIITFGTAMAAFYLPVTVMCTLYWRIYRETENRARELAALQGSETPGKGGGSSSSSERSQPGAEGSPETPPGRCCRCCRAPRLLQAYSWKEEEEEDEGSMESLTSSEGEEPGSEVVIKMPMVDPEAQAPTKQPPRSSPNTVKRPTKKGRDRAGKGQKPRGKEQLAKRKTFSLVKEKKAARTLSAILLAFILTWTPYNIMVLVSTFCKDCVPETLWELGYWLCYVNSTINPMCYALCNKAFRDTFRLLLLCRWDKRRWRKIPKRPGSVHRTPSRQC", "assay": "FLIPR functional screen", "format": "cell-based", "conditions": "antagonist mode"}, "CRTH2": {"target": "T26, CRTH2 (Homo sapiens, UniProt Q9Y5Y4)", "T26 construct": "Millipore", "assay": "FLIPR functional screen", "format": "cell-based", "conditions": "antagonist mode"}, "Leukotriene, BLT (LTB4)": {"target": "T27, Leukotriene, BLT (LTB4) (Homo sapiens, UniProt Q15722)", "T27 construct": "purchased MDS Pharma (outsourced assay) 250510", "T27 sequence (Q15722 whole entry)": "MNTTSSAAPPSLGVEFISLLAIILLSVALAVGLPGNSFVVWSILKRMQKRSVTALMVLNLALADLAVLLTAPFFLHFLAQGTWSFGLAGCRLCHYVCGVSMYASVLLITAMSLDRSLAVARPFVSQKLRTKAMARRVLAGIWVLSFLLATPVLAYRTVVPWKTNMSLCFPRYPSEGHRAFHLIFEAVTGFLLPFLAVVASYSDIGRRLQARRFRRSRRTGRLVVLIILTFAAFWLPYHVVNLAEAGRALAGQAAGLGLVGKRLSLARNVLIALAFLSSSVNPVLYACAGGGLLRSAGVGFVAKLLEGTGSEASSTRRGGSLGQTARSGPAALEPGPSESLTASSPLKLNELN", "assay": "Competitive radioligand binding (MDS Pharma)"}, "VPAC2": {"target": "T28, VPAC2 (Homo sapiens, UniProt P41587)", "T28 construct": "Millipore", "assay": "FLIPR functional screen", "format": "cell-based", "conditions": "antagonist mode"}, "CXCR2": {"target": "T29, CXCR2 (Homo sapiens, UniProt P25025)", "T29 construct": "Millipore", "assay": "FLIPR functional screen", "format": "cell-based", "conditions": "antagonist mode"}, "V1B": {"target": "T30, V1B (Homo sapiens, UniProt P47901)", "T30 construct": "Millipore", "T30 sequence (P47901 whole entry)": "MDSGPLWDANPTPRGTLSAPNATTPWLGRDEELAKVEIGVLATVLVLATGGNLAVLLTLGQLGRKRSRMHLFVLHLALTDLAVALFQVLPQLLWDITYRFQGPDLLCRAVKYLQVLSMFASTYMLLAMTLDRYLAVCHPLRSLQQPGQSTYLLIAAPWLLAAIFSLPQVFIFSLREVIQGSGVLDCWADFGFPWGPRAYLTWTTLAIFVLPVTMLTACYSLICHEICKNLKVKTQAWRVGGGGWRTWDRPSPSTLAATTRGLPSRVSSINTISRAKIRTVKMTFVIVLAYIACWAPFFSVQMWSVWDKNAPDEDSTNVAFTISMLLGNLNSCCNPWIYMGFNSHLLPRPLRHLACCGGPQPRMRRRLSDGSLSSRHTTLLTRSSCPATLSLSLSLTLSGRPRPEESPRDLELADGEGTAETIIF", "assay": "FLIPR functional screen", "format": "cell-based", "conditions": "antagonist mode"}, "LPA1": {"target": "T31, LPA1 (Homo sapiens, UniProt Q92633)", "T31 construct": "Millipore", "assay": "FLIPR functional screen", "format": "cell-based", "conditions": "antagonist mode"}, "PAR4": {"target": "T32, PAR4 (Homo sapiens, UniProt Q96RI0)", "T32 construct": "Millipore", "assay": "FLIPR functional screen", "format": "cell-based", "conditions": "antagonist mode"}, "VPAC1": {"target": "T33, VPAC1 (Homo sapiens, UniProt P32241)", "T33 construct": "Millipore", "assay": "FLIPR functional screen", "format": "cell-based", "conditions": "antagonist mode"}, "5-HT2B": {"target": "T34, 5-HT2B (Homo sapiens, UniProt P41595)", "T34 construct": "purchased Millipore (outsourced screen)", "assay": "FLIPR functional screen", "format": "cell-based", "conditions": "antagonist mode"}},
  "data": [
    {"smiles": "CCN1C(=O)N2Cc3cc(OC)cc(OC)c3[C@@H](C)C=C2C12CCN(Cc1cccn1C)CC2", "note": "[ER-819924-01]", "values": [
      {"measurement": "inhibition at 1 µM", "setting": "H2", "value": 1.8, "unit": "%"},
      {"measurement": "inhibition at 1 µM", "setting": "GAL2", "value": 8.1, "unit": "%"},
      {"measurement": "inhibition at 1 µM", "setting": "OPRK1", "value": 6.2, "unit": "%"},
      {"measurement": "inhibition at 1 µM", "setting": "D5", "value": 34.7, "unit": "%"},
      {"measurement": "inhibition at 1 µM", "setting": "CYSLT1", "value": -1.6, "unit": "%"},
      {"measurement": "inhibition at 1 µM", "setting": "5-HT2C", "value": -12.5, "unit": "%"},
      {"measurement": "inhibition at 1 µM", "setting": "FP", "value": 14, "unit": "%"},
      {"measurement": "inhibition at 1 µM", "setting": "PAC1", "value": 4.1, "unit": "%"},
      {"measurement": "inhibition at 1 µM", "setting": "H1", "value": -39.3, "unit": "%"},
      {"measurement": "% INHIBITION", "setting": "Prostanoid EP4; CONC. 0.1 μm", "value": 21, "unit": "%"},
      {"measurement": "% INHIBITION", "setting": "Prostanoid EP4; CONC. 1 μm", "value": 71, "unit": "%"},
      {"measurement": "binding selectivity for EP4 over other EP/prostanoid/leukotriene receptors", "setting": "Prostanoid EP4; competitive radioligand binding assay", "value": "selectively bind to EP4"},
      {"measurement": "inhibition at 1 µM", "setting": "BB3", "value": 6.2, "unit": "%"},
      {"measurement": "inhibition at 1 µM", "setting": "M2", "value": 1.5, "unit": "%"},
      {"measurement": "inhibition at 1 µM", "setting": "PTH2", "value": -6.2, "unit": "%"},
      {"measurement": "inhibition at 1 µM", "setting": "M3", "value": 8.9, "unit": "%"},
      {"measurement": "inhibition at 1 µM", "setting": "NK3", "value": -2.2, "unit": "%"},
      {"measurement": "inhibition at 1 µM", "setting": "CCK2", "value": -0.4, "unit": "%"},
      {"measurement": "inhibition at 1 µM", "setting": "D1", "value": 14, "unit": "%"},
      {"measurement": "inhibition at 1 µM", "setting": "SST5", "value": 0.1, "unit": "%"},
      {"measurement": "inhibition at 1 µM", "setting": "NMU1", "value": -14, "unit": "%"},
      {"measurement": "inhibition at 1 µM", "setting": "Y2", "value": -1, "unit": "%"},
      {"measurement": "inhibition at 1 µM", "setting": "CCR10", "value": 2.2, "unit": "%"},
      {"measurement": "inhibition at 1 µM", "setting": "GPR41", "value": -7.3, "unit": "%"},
      {"measurement": "inhibition at 1 µM", "setting": "CXCR3", "value": 3.2, "unit": "%"},
      {"measurement": "inhibition at 1 µM", "setting": "5-HT1B", "value": 3, "unit": "%"},
      {"measurement": "inhibition at 1 µM", "setting": "M1", "value": 3.6, "unit": "%"},
      {"measurement": "inhibition at 1 µM", "setting": "CRTH2", "value": 4.1, "unit": "%"},
      {"measurement": "% INHIBITION", "setting": "Leukotriene, BLT (LTB4); CONC. 0.1 μm", "value": "−12", "unit": "%"},
      {"measurement": "% INHIBITION", "setting": "Leukotriene, BLT (LTB4); CONC. 1 μm", "value": "−11", "unit": "%"},
      {"measurement": "inhibition at 1 µM", "setting": "VPAC2", "value": -3.7, "unit": "%"},
      {"measurement": "inhibition at 1 µM", "setting": "CXCR2", "value": 1.2, "unit": "%"},
      {"measurement": "inhibition at 1 µM", "setting": "V1B", "value": 4.7, "unit": "%"},
      {"measurement": "inhibition at 1 µM", "setting": "LPA1", "value": 8, "unit": "%"},
      {"measurement": "inhibition at 1 µM", "setting": "PAR4", "value": -38.6, "unit": "%"},
      {"measurement": "inhibition at 1 µM", "setting": "VPAC1", "value": 4.6, "unit": "%"},
      {"measurement": "inhibition at 1 µM", "setting": "5-HT2B", "value": 11.3, "unit": "%"}
    ]}
  ]
}
